Measured values reported in US6716851B2, “Substituted 2-aryl-4-arylaminopyrimidines and analogs as activators or caspases and inducers of apoptosis and the use thereof” (Cytovia, Inc., priority 2000, dated 2004).

Assays:
T-47D cells = assay: Cell cycle arrest and apoptosis by propidium iodide flow cytometry in T-47D cells; type: cell-based, Human; conditions: 48 h
Description: T-47D, a breast cancer cell line, was maintained and harvested as described in Example 221. 5×10^5 Cells were treated with 0.2 μM of 4-(3-methoxyanilino)-2-(2-pyridinyl)-6-(trifluoromethyl)pyrimidine for 48 h at 37° C. As a control, cells were also incubated with equivalent amount of solvent (DMSO). Cells were harvested at 1,200 rpm and then transferred to 12×75 mm polystyrene tubes. Cells were then resuspended in 500 μl of 1% Na Citrate, 0.1% Triton X-100, and 50 μg/ml of propidium iodide and incubated at room temperature for 30 min followed by flow cytometer analysis. All flow cytometry analyses were performed on FACScalibur (Becton Dickinson) using Cell Quest analysis software. The x-axis plotted the amount of fluorescence and the y-axis is plotted the number of cells with the indicated fluorescence. The T-47D control cell population profile is seen in FIG. 1A and the increase in G2/M DNA content cells that is seen when treated with 4-(3-methoxyanilino)-2-(2-pyridinyl)-6-(trifluoromethyl)pyrimidine at 0.2 μM is seen in FIG. 1B. An increase in the sub-diploid DNA content of cells (FIG. 1) is also seen to increase from 2% to 25% with compound treatment. The sub-diploid amount of DNA is indicative of apoptotic cells which have undergone DNA degradation or fragmentation.

ZR-75-1 cells = assay: Cell proliferation assay (GI50) in ZR-75-1 cells; type: cell-based; conditions: Homo sapiens; ZR 75-1, 48 h
Description: [Worded in the source for another cell line; this cell line is reported under the same test.] (§1) T-47D cells were grown and harvested as in Example 221. An aliquot of 90 μl of cells (2.2×10^4 cells/ml) was added to a well of a 96-well microtiter plate containing 10 μl of a 10% DMSO in RPMI-1640 media solution containing 1 nM to 100 μM of 4-(3-methoxyanilino)-2-(2-pyridinyl)-6-(trifluoromethyl)pyrimidine (0.1 nM to 10 μM final). An aliquot of 90 μl of cells was added to a well of a 96-well microtiter plate containing 10 μl of a 10% DMSO in RPMI-1640 media solution without compound as the control sample for maximal cell proliferation (AMax). The samples were mixed by agitation and then incubated at 37° C. for 48 h in a 5% CO2-95% humidity incubator. After incubation, the samples were removed from the incubator and 20 μl of CellTiter 96 AQueous One Solution Cell Proliferation^TM reagent (Promega) was added. The samples were mixed by agitation and incubated at 37° C. for 2-4 h in a 5% CO2-95% humidity incubator. Using an absorbance plate reader (Model 1420 Wallac Instruments), an initial reading (T=0) was made approximately 1-2 min after addition of the solution, employing absorbance at 490 nm. This determines the possible background absorbance of the test compounds. No absorbance for 4-(3-methoxyanilino)-2-(2-pyridinyl)-6-(trifluoromethyl)pyrimidine was found at 490 nm. After the 2-4 h incubation, the samples were read for absorbance as above (ATest). […]

SK-Br-3 cells = assay: Cell proliferation assay (GI50) in SK-Br-3 cells; type: cell-based; conditions: Homo sapiens, SK-BR-3, 48 h
Description: [Worded in the source for another cell line; this cell line is reported under the same test.] as §1

## COc1cccc(Nc2cc(C(F)(F)F)nc(-c3ccccn3)n2)c1 [Compound A, 4-(3-methoxyanilino)-2-(2-pyridinyl)-6-(trifluoromethyl)pyrimidine]
T-47D cells; 0.2 μM, control 2%
  sub-diploid DNA content of cells: 25%
T-47D cells; 200 nM, versus control cells
  G1 population: reduction
  G2/M population (G2/M DNA content cells): increase
ZR-75-1 cells
  GI50: 100 nM
SK-Br-3 cells
  GI50: 60 nM
